Data as given in patent US20250082664A1, “NUCLEOSIDE FORMULATION” (PHION THERAPEUTICS LTD, priority 2021, published 2025).

Tests used:
[1] = test system: BxPC-3 cells; test: Cell cycle analysis (propidium iodide, FACS); assay type: cell-based; conditions: 48 hours following treatment, 2 μM (1 μg) for 5 h, manual formulations
Method: 1.5×10^5 BxPC-3 cells were plated in 6-well plates (Nunc, UK) and left to adhere for 24 h. Cells were transferred to serum free media for 24-h, to ensure synchronisation of cells. Subsequently, cells were incubated with RALA/dFdCTP nanoparticles at a concentration of 2 μM (1 μg) for 5 h before removal of treatment media and the addition of fresh complete media. 48 h following treatment, cells were trypsinsed and fixed in ice-cold 70% ethanol for 1 hour at 4° C. Cells were washed twice in Phosphate Buffered Saline (PBS) for 5 min, before resuspension in 500 μL PBS and the addition of 50 μL of 100 μg/ml RNase (Invitrogen, UK). 10 minutes prior to running samples on fluorescence-activated cell sorting (FACS), 10 μl of a 100 μg/ml stock of propidium iodide (PI) was added. Controls include: untreated; dCTP (negative control); RALA/dCTP (RALA control); dFdCTP (drug control); and gemcitabine (comparator control).
A cell cycle analysis following treatment with RALA/dFdCTP was undertaken. If dFdCTP had been successfully delivered to cells, it would be incorporated during DNA polymerase, preventing DNA chain elongation. This would ultimately prevent cells from actively proliferating. This means that during cell cycling, the cycle will be arrested at the S-phase. Therefore, if there are a higher percentage of the cells in the (G0/G1+−S) phases than compared to the G2 phase, it is an indicator that dFdCTP has affected the cell cycle.

[2] = test system: red blood cell (RBC); test: Haemolysis assay; assay type: cell-based; conditions: ovine RBC, equivalent of 10-30 μg dFdCTP, 1 h at 37° C., isotonic trehalose solution
Method: Defibrinated ovine whole blood (5 ml, TCS Biosciences Ltd, UK) was centrifuged at 500 g in citrate-phosphate buffer (15 ml, 0.1 M citric acid, C6HsO7, and 0.2 M disodium hydrogen phosphate, Na2HPO4) for 20 min to separate erythrocytes. The erythrocytes were subsequently washed three times with 20 mL of citrate-phosphate buffer by centrifugation and re-suspended in citrate-phosphate buffer solution at a concentration of 1×10^8 cells/mL. A Countess II automated cell counter (ThermoFisher, UK) was used to count erythrocytes by first diluting the erythrocyte suspension 1:10,000 in buffer. Subsequently, isotonic solutions (of osmolality in the range 290-310 mOsmol/kg) of RALA/dFdCTP (MR2.0) nanoparticles mixed with trehalose, or dFdCTP and trehalose was added to the erythrocyte suspension, with the equivalent of 10-30 μg dFdCTP added, and the solution incubated for 1 h at 37° C. Following incubation, the erythrocyte suspensions were centrifuged for 90 s at 400 g to form a cell pellet. Absorbance of the supernatant was measured via a Nanodrop 2000c UV-Vis spectrophotometer (Thermo Scientific, UK) at 541 nm. 1% Triton X-100 was used as a positive control representing 100% haemolysis; and citrate-phosphate buffer at pH 7.4 was used as a negative control.

[3] = Ioka T, et al. 2013; cited from earlier work

| Structure (SMILES) | Cells in (G0/G1 + S) Phase [1] | haemolysis [2] | overall clinical response rate [3] |
| --- | --- | --- | --- |
| Nc1ccn([C@@H]2O[C@H](COP(=O)(O)OP(=O)(O)OP(=O)(O)O)[C@@H](O)C2(F)F)c(=O)n1 [dFdCTP, 2′,2′-difluorodeoxycytidine 5′-triphosphate] | 66.4% | > 20% | – |
| Nc1ccn([C@@H]2O[C@H](CO)[C@@H](O)C2(F)F)c(=O)n1 [Gemcitabine, 2′,2′-difluoro-2′-deoxycytidine] | 60.2% | – | 6% |
| Nc1ccn([C@H]2C[C@H](O)[C@@H](COP(=O)(O)OP(=O)(O)OP(=O)(O)O)O2)c(=O)n1 [dCTP, deoxycytidine triphosphate] | 49.9% | – | – |
